Laboratory results: ChEMBL document CHEMBL1201862, “PubChem BioAssay data set” (2004)
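Step 1: Grow cells in 96-well plates. Step 2: Expose to compound for 48 hours at 5 concentrations. Step 3: Interpolate endpoints linearly; if unreached, use highest concentration. At the GI50, growth is halved.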 Activity calls are given as the source filed them. No stated cut-off is given here; in the data, active = GI50 up to about 1.1 µM and inactive = higher.

Assays:
Assay in all cases: NCI-60 cell line screen, 48 h
RXF 393 = test system: RXF 393
EKVX = test system: EKVX
MDA-MB-435 = test system: MDA-MB-435
ACHN = test system: ACHN
SF-295 = test system: SF-295
PC-3 = test system: PC-3
SNB-19 = test system: SNB-19
K562 = test system: K562
M14 = test system: M14
OVCAR-3 = test system: OVCAR-3
T47D = test system: T47D
A549 = test system: A549
NCI-H226 = test system: NCI-H226
Malme-3M = test system: Malme-3M
MDA-N = test system: MDA-N
HCT-116 = test system: HCT-116
U-251 = test system: U-251
HOP-92 = test system: HOP-92
SK-MEL-28 = test system: SK-MEL-28
LOX IMVI = test system: LOX IMVI

Measured: GI50

Cc1ccc(/N=N/C(=N/NC(=O)c2ccccc2)c2ccc(N(CCC#N)CCC#N)cc2C)cc1
inactive: RXF 393 22.8 µM | EKVX 63.4 µM | MDA-MB-435 4.97 µM | ACHN > 100 µM | SF-295 21.7 µM | PC-3 26.7 µM | SNB-19 35 µM | K562 8.05 µM | M14 78.2 µM | OVCAR-3 12.5 µM | T47D 37.4 µM | A549 34.3 µM | NCI-H226 44 µM | Malme-3M 43.5 µM | MDA-N 3.97 µM | HCT-116 29.3 µM | U-251 52.6 µM

C[C@@H]1OC(=O)C[C@H]2CC(=O)N(CCc3cn(S(=O)(=O)C(F)(F)F)c4ccccc34)C[C@@H]21
inactive: RXF 393 > 100 µM | EKVX > 100 µM | HOP-92 > 100 µM | MDA-MB-435 > 100 µM | SK-MEL-28 > 100 µM | ACHN > 100 µM | SF-295 > 100 µM | PC-3 > 100 µM | SNB-19 > 100 µM | K562 > 100 µM | M14 > 100 µM | OVCAR-3 > 100 µM | T47D > 100 µM | A549 > 100 µM | Malme-3M > 100 µM | MDA-N > 100 µM | HCT-116 > 100 µM | U-251 > 100 µM

COc1cccc(Nc2nc3c([nH]2)c(=O)n(C)c(=O)n3C)c1
inactive: RXF 393 7.01 µM | EKVX > 10 µM | LOX IMVI > 10 µM | HOP-92 > 10 µM | MDA-MB-435 > 10 µM | SK-MEL-28 > 10 µM | SF-295 > 10 µM | PC-3 > 10 µM | K562 > 10 µM | M14 > 10 µM | T47D > 10 µM | A549 > 10 µM | Malme-3M > 10 µM | MDA-N > 10 µM

O=C(n1c(=O)n(-c2ccc([N+](=O)[O-])cc2)c(=O)n1C(=O)C(Cl)(Cl)Cl)C(Cl)(Cl)Cl
inactive: RXF 393 > 100 µM | EKVX > 100 µM | LOX IMVI > 100 µM | MDA-MB-435 > 100 µM | SK-MEL-28 > 100 µM | ACHN > 100 µM | SF-295 > 100 µM | PC-3 > 100 µM | SNB-19 > 100 µM | K562 > 10 µM | M14 > 100 µM | OVCAR-3 > 100 µM | T47D > 100 µM | A549 > 100 µM | NCI-H226 > 100 µM | Malme-3M > 100 µM | MDA-N > 100 µM | HCT-116 > 100 µM | U-251 > 100 µM

Cc1c(Cl)cccc1NC(=O)/C=C/c1ccccc1
inactive: EKVX 55.8 µM | LOX IMVI > 100 µM | HOP-92 21 µM | MDA-MB-435 > 100 µM | SK-MEL-28 88.5 µM | ACHN 89.5 µM | SF-295 > 100 µM | PC-3 > 100 µM | SNB-19 45.6 µM | K562 > 100 µM | M14 > 100 µM | OVCAR-3 > 100 µM | T47D > 100 µM | A549 > 100 µM | NCI-H226 60.1 µM | Malme-3M > 100 µM | MDA-N > 100 µM | HCT-116 > 100 µM | U-251 > 100 µM

C=CCCC1CCCCNC1=S (stereo unspecified)
inactive: RXF 393 > 10 µM | EKVX > 10 µM | LOX IMVI > 10 µM | MDA-MB-435 > 10 µM | SK-MEL-28 > 10 µM | ACHN > 10 µM | SF-295 > 10 µM | PC-3 > 10 µM | SNB-19 > 10 µM | K562 > 10 µM | M14 > 10 µM | OVCAR-3 > 10 µM | T47D > 10 µM | A549 > 10 µM | NCI-H226 > 10 µM | Malme-3M > 10 µM | MDA-N > 10 µM | HCT-116 > 10 µM | U-251 > 10 µM
